Source: ChEMBL document CHEMBL3739275, “Tryptophan dendrimers that inhibit HIV replication, prevent virus entry and bind to the HIV envelope glycoproteins gp120 and gp41” (Eur J Med Chem, 2015)
Calls of active or inactive are those of the source. The rule behind the calls is not given here.

Experiments:
[1] = Selectivity index, ratio of CC50 for human CEM cells to EC50 for HIV1 3B; assay type: toxicity, cell-based, CCRF-CEM; conditions: read-out: Ratio CC50/EC50
[2] = test system: Human immunodeficiency virus 1; assay: Binding affinity to recombinant HIV1 HxB2 gp-41 at 50 uM by surface plasmon resonance assay
[3] = Cytotoxicity against human CEM cells assessed as cell count after 3 days; assay type: cell-based; conditions: CEM cells (CCRF-CEM)
[4] = test system: Human immunodeficiency virus 1; assay: Antiviral activity against HIV1 NL4.3 infected in human MT4 cells assessed as inhibition of virus-induced cytopathic effect after 5 days by MTS/phenazine ethosulfate method; assay type: functional, organism-based; conditions: Human immunodeficiency virus 1, NL4.3, MT4, 120 h
[5] = Binding affinity to recombinant HIV1 3B gp-120 expressed in CHO cells at 50 uM by surface plasmon resonance assay; conditions: Human immunodeficiency virus 1
[6] = test system: Human immunodeficiency virus 1; assay: Antiviral activity against HIV1 3B infected in human CEM cells assessed as inhibition of virus-induced giant cell formation after 4 to 5 days by microscopic analysis; assay type: functional, organism-based; conditions: CCRF-CEM; for EC50: Human immunodeficiency virus 1, 3B
[7] = test system: Human immunodeficiency virus 1; assay: Antiviral activity against HIV1 3B infected in human MT4 cells assessed as inhibition of early viral infection to host cells by measuring p24 production at 10 uM treated 1 to 25 hrs of post infection by ELISA; assay type: functional, organism-based
[8] = test system: Human immunodeficiency virus 2; assay: Antiviral activity against HIV2 ROD infected in human CEM cells assessed as inhibition of virus-induced giant cell formation after 4 to 5 days by microscopic analysis; assay type: functional, organism-based; conditions: Human immunodeficiency virus 2, ISOLATE ROD, CCRF-CEM
[9] = Binding affinity to recombinant HIV1 3B gp-120 expressed in CHO cells by surface plasmon resonance assay; set-up: species or system Human immunodeficiency virus 1; conditions: read-out: Kd(app)

SMILES | Activity [2] | EC50 [6] [µM] | EC50 [8] [µM] | selectivity ratio [1] | CC50 at 72 h [3] [µM] | EC50 [4] [µM] | Activity [5] | Activity [6] | Activity [7] | Kd [9] [µM]
CCc1c(CC(=O)NC(CCC(=O)O)(CCC(=O)O)CCC(=O)O)c(CC)c(CC(=O)NC(CCC(=O)O)(CCC(=O)O)CCC(=O)O)c(CC)c1CC(=O)NC(CCC(=O)O)(CCC(=O)O)CCC(=O)O |  | > 250 | > 250 |  | > 250 |  |  |  |  | 
O=C(O)CCC(CCC(=O)O)(CCC(=O)O)NC(=O)CN(CCN(CC(=O)NC(CCC(=O)O)(CCC(=O)O)CCC(=O)O)CC(=O)NC(CCC(=O)O)(CCC(=O)O)CCC(=O)O)CC(=O)NC(CCC(=O)O)(CCC(=O)O)CCC(=O)O |  | > 250 | > 250 |  | > 250 |  |  |  |  | 
C[C@H](Cn1cnc2c(N)ncnc21)OCP(=O)(O)O [TENOFOVIR ANHYDROUS] |  |  |  |  | > 100 |  |  |  |  | 
O=C(CCC(CCC(=O)N[C@@H](Cc1c[nH]c2ccccc12)C(=O)O)(CCC(=O)N[C@@H](Cc1c[nH]c2ccccc12)C(=O)O)NC(=O)CN(CCN(CC(=O)NC(CCC(=O)N[C@@H](Cc1c[nH]c2ccccc12)C(=O)O)(CCC(=O)N[C@@H](Cc1c[nH]c2ccccc12)C(=O)O)CCC(=O)N[C@H](Cc1c[nH]c2ccccc12)C(=O)O)CC(=O)NC(CCC(=O)N[C@@H](Cc1c[nH]c2ccccc12)C(=O)O)(CCC(=O)N[C@H](Cc1c[nH]c2ccccc12)C(=O)O)CCC(=O)N[C@H](Cc1c[nH]c2ccccc12)C(=O)O)CC(=O)NC(CCC(=O)N[C@@H](Cc1c[nH]c2ccccc12)C(=O)O)(CCC(=O)N[C@H](Cc1c[nH]c2ccccc12)C(=O)O)CCC(=O)N[C@H](Cc1c[nH]c2ccccc12)C(=O)O)N[C@@H](Cc1c[nH]c2ccccc12)C(=O)O | Active | 11.3 | ≥ 30 |  | > 30 |  | Active | Dose-dependent effect |  | 
O=C(O)CCC(CCC(=O)O)(CCC(=O)O)NC(=O)C[C@H]1C[C@@H](CC(=O)NC(CCC(=O)O)(CCC(=O)O)CCC(=O)O)C[C@@H](CC(=O)NC(CCC(=O)O)(CCC(=O)O)CCC(=O)O)C1 |  | > 250 | > 250 |  | > 250 |  |  |  |  | 
CCc1c(CNc2nc(N[C@@H](Cc3c[nH]c4ccccc34)C(=O)O)nc(N[C@@H](Cc3c[nH]c4ccccc34)C(=O)O)n2)c(CC)c(CNc2nc(N[C@@H](Cc3c[nH]c4ccccc34)C(=O)O)nc(N[C@@H](Cc3c[nH]c4ccccc34)C(=O)O)n2)c(CC)c1CNc1nc(N[C@@H](Cc2c[nH]c3ccccc23)C(=O)O)nc(N[C@@H](Cc2c[nH]c3ccccc23)C(=O)O)n1 |  |  |  |  | > 250 |  |  |  |  | 14
CN[C@@H]1[C@H](O[C@@H]2OC[C@@H](O)[C@H](O)[C@H]2O)[C@@H](O)[C@H](O[C@H]2c3cc(C)c(C(=O)N[C@H](C)C(=O)O)c(O)c3-c3c(cc4c(c3O)C(=O)c3cc(OC)cc(O)c3C4=O)[C@@H]2O)O[C@@H]1C [PRADIMICIN A] |  |  |  |  | > 100 |  |  |  |  | 

More lines, in order of falling EC50 [6], values ahead:

Activity [2] | EC50 [6] [µM] | EC50 [8] [µM] | SMILES | selectivity ratio [1] | CC50 at 72 h [3] [µM] | EC50 [4] [µM] | Activity [5] | Activity [6] | Activity [7] | Kd [9] [µM]
Active | 9.9 | 44 | O=C(CCC(CCC(=O)N[C@@H](Cc1c[nH]c2ccccc12)C(=O)O)(CCC(=O)N[C@H](Cc1c[nH]c2ccccc12)C(=O)O)NC(=O)CCC(CCC(=O)NC(CCC(=O)N[C@@H](Cc1c[nH]c2ccccc12)C(=O)O)(CCC(=O)N[C@@H](Cc1c[nH]c2ccccc12)C(=O)O)CCC(=O)N[C@H](Cc1c[nH]c2ccccc12)C(=O)O)(CCC(=O)NC(CCC(=O)N[C@@H](Cc1c[nH]c2ccccc12)C(=O)O)(CCC(=O)N[C@H](Cc1c[nH]c2ccccc12)C(=O)O)CCC(=O)N[C@H](Cc1c[nH]c2ccccc12)C(=O)O)[N+](=O)[O-])N[C@@H](Cc1c[nH]c2ccccc12)C(=O)O |  | > 100 |  | Active | Dose-dependent effect |  | 
Active | 6.2 |  | CCc1c(CC(=O)NC(CCC(=O)N[C@@H](Cc2c[nH]c3ccccc23)C(=O)O)(CCC(=O)N[C@@H](Cc2c[nH]c3ccccc23)C(=O)O)CCC(=O)N[C@H](Cc2c[nH]c3ccccc23)C(=O)O)c(CC)c(CC(=O)NC(CCC(=O)N[C@@H](Cc2c[nH]c3ccccc23)C(=O)O)(CCC(=O)N[C@H](Cc2c[nH]c3ccccc23)C(=O)O)CCC(=O)N[C@H](Cc2c[nH]c3ccccc23)C(=O)O)c(CC)c1CC(=O)NC(CCC(=O)N[C@@H](Cc1c[nH]c2ccccc12)C(=O)O)(CCC(=O)N[C@H](Cc1c[nH]c2ccccc12)C(=O)O)CCC(=O)N[C@H](Cc1c[nH]c2ccccc12)C(=O)O |  | > 100 |  | Active | Dose-dependent effect |  | 
Active | 4.5 |  | O=C(CCC(CCC(=O)N[C@@H](Cc1c[nH]c2ccccc12)C(=O)O)(CCC(=O)N[C@H](Cc1c[nH]c2ccccc12)C(=O)O)NC(=O)[C@H]1C[C@@H](C(=O)NC(CCC(=O)N[C@@H](Cc2c[nH]c3ccccc23)C(=O)O)(CCC(=O)N[C@H](Cc2c[nH]c3ccccc23)C(=O)O)CCC(=O)N[C@H](Cc2c[nH]c3ccccc23)C(=O)O)C[C@@H](C(=O)NC(CCC(=O)N[C@@H](Cc2c[nH]c3ccccc23)C(=O)O)(CCC(=O)N[C@H](Cc2c[nH]c3ccccc23)C(=O)O)CCC(=O)N[C@H](Cc2c[nH]c3ccccc23)C(=O)O)C1)N[C@@H](Cc1c[nH]c2ccccc12)C(=O)O | > 55 | > 250 | 2 | Active | Dose-dependent effect |  | 
Active | 3.2 |  | O=C(CCC(CCC(=O)N[C@@H](Cc1c[nH]c2ccccc12)C(=O)O)(CCC(=O)N[C@H](Cc1c[nH]c2ccccc12)C(=O)O)NC(=O)CN(CC(=O)NC(CCC(=O)N[C@@H](Cc1c[nH]c2ccccc12)C(=O)O)(CCC(=O)N[C@H](Cc1c[nH]c2ccccc12)C(=O)O)CCC(=O)N[C@H](Cc1c[nH]c2ccccc12)C(=O)O)CC(=O)NC(CCC(=O)N[C@H](Cc1c[nH]c2ccccc12)C(=O)O)(CCC(=O)N[C@H](Cc1c[nH]c2ccccc12)C(=O)O)CCC(=O)N[C@H](Cc1c[nH]c2ccccc12)C(=O)O)N[C@@H](Cc1c[nH]c2ccccc12)C(=O)O |  | 59 | 2.5 | Active | Dose-dependent effect | Active | 
Active | 2.6 |  | O=C(CCC(CCC(=O)N[C@@H](Cc1c[nH]c2ccccc12)C(=O)O)(CCC(=O)N[C@H](Cc1c[nH]c2ccccc12)C(=O)O)NC(=O)c1cc(C(=O)NC(CCC(=O)N[C@@H](Cc2c[nH]c3ccccc23)C(=O)O)(CCC(=O)N[C@H](Cc2c[nH]c3ccccc23)C(=O)O)CCC(=O)N[C@H](Cc2c[nH]c3ccccc23)C(=O)O)cc(C(=O)NC(CCC(=O)N[C@@H](Cc2c[nH]c3ccccc23)C(=O)O)(CCC(=O)N[C@H](Cc2c[nH]c3ccccc23)C(=O)O)CCC(=O)N[C@H](Cc2c[nH]c3ccccc23)C(=O)O)c1)N[C@@H](Cc1c[nH]c2ccccc12)C(=O)O |  | 53 | 1.3 | Active | Dose-dependent effect |  | 
